This passage reports IC50 and DC50 results from patent publication US20240293558A1, “KRAS INHIBITOR CONJUGATES” (Erasca, Inc., priority 2021, published 2024).

Molecules are shown by their SMILES. Where two headings read alike, the source gives them in different places.

One assay deals with T1, KRAS (WT) (Homo sapiens, UniProt P01116).
T1 construct: Biotinylated KRAS protein amino acids 1-169 (produced at Erasca); made in house
Description: In-vitro RAS-RAF binding assay (RRB), HTRF/FRET. Conditions: read-out: Inhibition of RAS-RAF Binding (in-vitro) KRAS (WT) IC50. Type of assay: biochemical. The gist of the method: (§1)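 Biotinylated KRAS 1-169 (streptavidin-terbium donor, 30 nM) and GST-cRAF RBD (anti-GST d2 acceptor, 30 nM) in HEPES pH 7.5, NaCl, MgCl2, DTT buffer. After compound incubation, SOS1 catalytic domain plus GTPgS drive 60 min nucleotide exchange. HTRF FRET read at equilibrium, in duplicate.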
(TR-FRET usually uses a lanthanide donor and a delayed reading to cut background.)

The next assay has as its target KRAS G12D (Homo sapiens, UniProt P01116, G12D). Description: In-vitro RAS-RAF binding assay (RRB), HTRF/FRET. The arrangement: Biotinylated KRAS protein amino acids 1-169 (produced at Erasca); made in house. It is filed as biochemical. As to conditions: read-out: Inhibition of RAS-RAF Binding (in-vitro) KRAS (G12D) IC50. Summed up: as §1
The target in assay [1] is T2, KRas G12D fused to HiBiT peptide (Homo sapiens, UniProt P01116, G12D).
T2 construct: endogenous in cells; host or cells: AsPC-1 HiBiT knock-in single clone (Cas9 RNP + ssODN)
As to the kind of experiment: ASPC-1 HiBit assay to determine G12D degradation. Type of assay: cell-based. As to conditions: AsPC-1 HiBiT cells, 24-hour incubation; read-out: ASPC-1 HiBit DC50 (C). The gist of the method: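 Homozygous AsPC-1 clone with N-terminal HiBiT knock-in on endogenous KRas G12D, 24 h compound exposure, top dose 10 μM, 3-fold, 10 points, 1% DMSO. Lytic HiBiT luminescence normalised to DMSO and inhibitor controls gives % degradation; DC50 from 4-parameter fit after hook-effect points removed.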

The mark [2] stands for this setting: Table 2, average of multiple runs of each compound.

Sequence of KRAS G12D (P01116 1-169 isoform P01116-2 G12D): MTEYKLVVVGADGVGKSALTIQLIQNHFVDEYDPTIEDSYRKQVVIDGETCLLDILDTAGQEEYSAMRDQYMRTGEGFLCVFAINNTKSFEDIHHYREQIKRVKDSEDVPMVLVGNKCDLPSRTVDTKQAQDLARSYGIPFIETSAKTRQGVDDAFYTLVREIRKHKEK
T1 sequence (P01116 1-169 isoform P01116-2): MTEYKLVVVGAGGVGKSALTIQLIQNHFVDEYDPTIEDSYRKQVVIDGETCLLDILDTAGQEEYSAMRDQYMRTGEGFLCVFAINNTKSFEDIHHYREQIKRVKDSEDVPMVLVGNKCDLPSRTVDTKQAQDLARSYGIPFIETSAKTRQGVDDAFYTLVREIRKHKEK
T2 sequence (P01116 1-188 isoform P01116-2 G12D): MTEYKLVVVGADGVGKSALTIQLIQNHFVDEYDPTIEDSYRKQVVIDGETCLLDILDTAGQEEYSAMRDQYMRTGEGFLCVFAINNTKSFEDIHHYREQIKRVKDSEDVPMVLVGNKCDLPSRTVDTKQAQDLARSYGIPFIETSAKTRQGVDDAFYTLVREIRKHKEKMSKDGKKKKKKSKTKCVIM

With `C[C@H](NC(=O)[C@@H]1C[C@@H](O)CN1C(=O)[C@@H](NC(=O)CCOCCCN1CCC[C@H]1COc1nc(N2CC3CCC(C2)N3)c2cc(C(F)(F)F)c(-c3ccc(F)c4sc(N)c(C#N)c34)c(F)c2n1)C(C)(C)C)c1ccc(-c2c(F)cc(F)cc2F)cc1` [Example 92, (2S,4R)-1-((2S)-2-(3-(3-((2S)-2-((((7S)-7-(2-amino-3-cyano-7-fluorobenzo[b]thiophen-4-yl)-4-(3,8-diazabicyclo[3.2.1]octan-3-yl)-8-fluoro-6-(trifluoromethyl)quinazolin-2-yl)oxy)methyl)pyrrolidin-1-yl)propoxy)propanamido)-3,3-dimethylbutanoyl)-4-hydroxy-N—((S)-1-(2′,4′,6′-trifluoro-[1,1′-biphenyl]-4-yl)ethyl)pyrrolidine-2-carboxamide], the results for the IC50 on KRAS (WT) (setting [2]) and at KRAS G12D (setting [2]) were 52 nM and 8.9 nM, respectively. Also, the DC50 – broadly, the midpoint of the concentration-degradation curve – in assay [1] is 49 nM.
The like results for `C#Cc1c(F)ccc2cc(O)cc(-c3ncc4c(N5CC6CCC(C5)N6)nc(OCCN5CCC6(CC5)CN(c5cc([C@H](C(=O)N7C[C@H](O)C[C@H]7C(=O)N[C@@H](C)c7ccc(-c8cccc(F)c8F)cc7)C(C)C)on5)C6)nc4c3F)c12` [Example 98, (2S,4R)-1-((2R)-2-(3-(7-(2-((4-(3,8-diazabicyclo[3.2.1]octan-3-yl)-7-(8-ethynyl-7-fluoro-3-hydroxynaphthalen-1-yl)-8-fluoropyrido[4,3-d]pyrimidin-2-yl)oxy)ethyl)-2,7-diazaspiro[3.5]nonan-2-yl)isoxazol-5-yl)-3-methylbutanoyl)-N—((S)-1-(2′,3′-difluoro-[1,1′-biphenyl]-4-yl)ethyl)-4-hydroxypyrrolidine-2-carboxamide] were, in that order, 1430 nM, 16 nM and 107 nM.
The like results for `CC(C)[C@@H](C(=O)N1C[C@H](O)C[C@H]1C(=O)N[C@@H](C)c1ccc(-c2c(F)cc(F)cc2F)cc1)c1cc(N2CC3(CCN(CCOc4nc(N5CC6CCC(C5)N6)c5cc(Cl)c(-c6ccc(F)c7sc(N)c(C#N)c67)c(F)c5n4)CC3)C2)no1` [Example 68, (2S,4R)-1-((2R)-2-(3-(7-(2-((7-(2-amino-3-cyano-7-fluorobenzo[b]thiophen-4-yl)-4-(3,8-diazabicyclo[3.2.1]octan-3-yl)-6-chloro-8-fluoroquinazolin-2-yl)oxy)ethyl)-2,7-diazaspiro[3.5]nonan-2-yl)isoxazol-5-yl)-3-methylbutanoyl)-4-hydroxy-N-((S)-1-(2′,4′,6′-trifluoro-[1,1′-biphenyl]-4-yl)ethyl)pyrrolidine-2-carboxamide] were, in that order, > 10000 nM, 19.3 nM and 1280 nM.
In the case of `C[C@H](NC(=O)[C@@H]1C[C@@H](O)CN1C(=O)[C@@H](NC(=O)CCOCCCN1CCC[C@H]1COc1nc(N2CC3CCC(C2)N3)c2cc(C(F)(F)F)c(-c3ccc(F)c4sc(N)c(C#N)c34)c(F)c2n1)C(C)(C)C)c1ccc(-c2cccc(F)c2F)cc1` [Example 94, (2S,4R)-1-((2S)-2-(3-(3-((2S)-2-((((7S)-7-(2-amino-3-cyano-7-fluorobenzo [b]thiophen-4-yl)-4-(3,8-diazabicyclo[3.2.1]octan-3-yl)-8-fluoro-6-(trifluoromethyl)quinazolin-2-yl)oxy)methyl)pyrrolidin-1-yl)propoxy)propanamido)-3,3-dimethylbutanoyl)-N—((S)-1-(2′,3′-difluoro-[1,1′-biphenyl]-4-yl)ethyl)-4-hydroxypyrrolidine-2-carboxamide], the IC50 (in general, the concentration needed to halve the response being measured) worked out at 67 nM at KRAS (WT) (setting [2]) and 9.2 nM on KRAS G12D (setting [2]). For the same compound, the DC50 in assay [1] was 38 nM.
The like results for `C[C@H](NC(=O)[C@@H]1C[C@@H](O)CN1C(=O)[C@@H](NC(=O)CCOCCCN1CCC[C@H]1COc1nc(N2CC3CCC(C2)N3)c2cc(C(F)(F)F)c(-c3ccc(F)c4sc(N)c(C#N)c34)c(F)c2n1)C(C)(C)C)c1ccc(-c2ccccc2Cl)cc1` [Example 95, (2S,4R)-1-((2S)-2-(3-(3-((2S)-2-((((7S)-7-(2-amino-3-cyano-7-fluorobenzo [b]thiophen-4-yl)-4-(3,8-diazabicyclo [3.2.1]octan-3-yl)-8-fluoro-6-(trifluoromethyl)quinazolin-2-yl)oxy)methyl)pyrrolidin-1-yl)propoxy)propanamido)-3,3-dimethylbutanoyl)-N—((S)-1-(2′-chloro-[1,1′-biphenyl]-4-yl)ethyl)-4-hydroxypyrrolidine-2-carboxamide] were, in that order, 65 nM, 8.5 nM and 43 nM.
For `C[C@H](NC(=O)[C@@H]1C[C@@H](O)CN1C(=O)[C@@H](NC(=O)CCOCCCN1CCCC1COc1nc(N2CC3CCC(C2)N3)c2cc(Cl)c(-c3ccc(F)c4sc(N)c(C#N)c34)c(F)c2n1)C(C)(C)C)c1ccc(-c2c(F)cccc2F)cc1` (stereo partly drawn) [Example 12, (2S,4R)-1-[(2S)-2-[3-[3-[2-[[7-(2-amino-3-cyano-7-fluoro-benzothiophen-4-yl)-6-chloro-4-(3,8-diazabicyclo[3.2.1]octan-3-yl)-8-fluoro-quinazolin-2-yl]oxymethyl]pyrrolidin-1-yl]propoxy]propanoylamino]-3,3-dimethyl-butanoyl]-N-[(1S)-1-[4-(2,6-difluorophenyl)phenyl]ethyl]-4-hydroxy-pyrrolidine-2-carboxamide], the IC50 at KRAS (WT) (Table 1) was 86.8 nM; on KRAS (WT) (setting [2]), 86.8 nM; at KRAS G12D (Table 1), 11.3 nM; on KRAS G12D (setting [2]) it was 11.2 nM. In addition, in assay [1], the DC50 is 77.5 nM.
For the compound `C#Cc1c(F)ccc2cc(O)cc(-c3ncc4c(N5CC6CCC(C5)N6)nc(OC[C@@H]5CCCN5CCCOCCC(=O)N[C@H](C(=O)N5C[C@H](O)C[C@H]5C(=O)N[C@@H](C)c5ccc(-c6scnc6C)cc5)C(C)(C)C)nc4c3F)c12` [Example 13, (2S,4R)-1-[(2S)-2-[3-[3-[(2S)-2-[[4-(3,8-diazabicyclo[3.2.1]octan-3-yl)-7-(8-ethynyl-7-fluoro-3-hydroxy-1-naphthyl)-8-fluoro-pyrido[4,3-d]pyrimidin-2-yl]oxymethyl]pyrrolidin-1-yl]propoxy]propanoylamino]-3,3-dimethyl-butanoyl]-4-hydroxy-N-[(1S)-1-[4-(4-methylthiazol-5-yl)phenyl]ethyl]pyrrolidine-2-carboxamide], the half-inhibitory concentration (IC50) at KRAS (WT) (Table 1) amounted to 49 nM; on KRAS (WT) (setting [2]), 49.1 nM; at KRAS G12D (Table 1), 13.6 nM; at KRAS G12D (setting [2]) it was 13.6 nM. For the same compound, in assay [1], the 50% degradation concentration (DC50) came to 444 nM.
Consider `CC(C)[C@@H](C(=O)N1C[C@H](O)C[C@H]1C(=O)N[C@@H](C)c1ccc(-c2c(F)cc(F)cc2F)cc1)c1cc(N2CC3(CCN(CCOc4nc(N5CC6CCC(C5)N6)c5cc(C(F)(F)F)c(-c6ccc(F)c7sc(N)c(C#N)c67)c(F)c5n4)CC3)C2)no1` [Example 75, (2S,4R)-1-((2R)-2-(3-(7-(2-((7-(2-amino-3-cyano-7-fluorobenzo[b]thiophen-4-yl)-4-(3,8-diazabicyclo[3.2.1]octan-3-yl)-8-fluoro-6-(trifluoromethyl)quinazolin-2-yl)oxy)ethyl)-2,7-diazaspiro[3.5]nonan-2-yl)isoxazol-5-yl)-3-methylbutanoyl)-4-hydroxy-N-((S)-1-(2′,4′,6′-trifluoro-[1,1′-biphenyl]-4-yl)ethyl)pyrrolidine-2-carboxamide], for which the figures for the IC50 on KRAS (WT) (setting [2]) and at KRAS G12D (setting [2]) were 836 nM and 23.9 nM, respectively. For the same compound, the DC50 in assay [1] was 843 nM.
